Drawing on publication PMC10046693, “KI04 an Aminoglycosides-Derived Molecule Acts as an Inhibitor of Human Connexin46 Hemichannels Expressed in HeLa Cells” (Biomolecules, 2023), this text covers IC50 for two compounds.

In assay [1] the target is T1, Connexin46 (Cx46) hemichannel (Homo sapiens, UniProt Q9Y6H8).
T1 construct: gene GJA3; human Cx46tGFP (turbo GFP fusion) expressed in HeLa cells
Briefly: DAPI uptake dose response in Cx46tGFP HeLa cells; whole-cell patch clamp ([…] KI04 decreased currents). It is filed as cell-based. In general terms: The patch-clamp technique gives a direct electrical read-out from membranes.

The target of assay [2] is T1, Connexin46 (Cx46) hemichannel. In words: DAPI uptake dose response in Cx46tGFP HeLa cells. It is filed as cell-based.

Take `CCCCCCCCCCCC(=O)NC[C@@H]1O[C@H](O[C@H]2[C@H](O)[C@@H](O[C@H]3O[C@H](CO)[C@@H](O)[C@H](N)[C@H]3O)[C@H](N)C[C@@H]2N)[C@H](O)[C@@H](O)[C@@H]1O` [KI04]: in assay [1], the 50% inhibitory concentration (IC50) (usually the concentration that inhibits the measured activity by half) is around 7.7 µM. Consider `NC[C@H]1O[C@H](O[C@H]2[C@H](O)[C@@H](O[C@H]3O[C@H](CO)[C@@H](O)[C@H](N)[C@H]3O)[C@H](N)C[C@@H]2N)[C@H](O)[C@@H](O)[C@@H]1O` [kanamycin], for which the 50% inhibitory concentration (IC50) in assay [2] was determined as 1.7 µM. This lies in the single-digit micromolar range.
